Experimental data from patent US5886025A, “Anti-mitotic agents which inhibit tubulin polymerization” (Baylor University, priority 1997, dated 1999).
Converted amounts (≈) assume the structure as drawn. “Also recorded” adds a separate entry of the source. Where a name gives a salt, the structure may show the parent alone. Read-outs that look alike come from different tables or passages of the source.

Experiments:
[1] = treatment of Chagas' disease, cited from earlier work
tubulin [2] = assay: tubulin polymerization assay; format: biochemical, bovine
Protocol: The ability of the various above described compounds to inhibit tubulin polymerization can be determined by in vitro assay. A suitable assay system is that described by Bai et al A method for purifying tubulin from bovine brain cells is described by Hamel and Lin.
IC50 values for tubulin polymerization were determined according to the procedure described in Bai et al. Purified tubulin is obtained from bovine brain cells as described in Hamel and Lin. Various amounts of inhibitor were preincubated for 15 minutes at 37° C. with purified tubulin. After the incubation period, the reaction was cooled and GTP was added to induce tubulin polymerization. Polymerization was then monitored in a Gilford spectrophotometer at 350 nm. The final reaction mixtures (0.25 ml) contained 1.5 mg/ml tubulin, 0.6 mg/ml microtubule-associated proteins (MAPs), 0.5 mM GTP, 0.5 mM MgCl2, 4% DMSO and 0.1M 4-morpholineethanesulfonate buffer (MES, pH 6.4).

P388 leukemia cells = assay: cytotoxic assay with P388 leukemia cells; format: cell-based; details: for IC50: Mus musculus
Excerpt: The tubulin polymerization compounds can also be tested for their ability to inhibit tumor cell growth.

tubulin [3] = details: cis or Z form vs trans or E; cited from earlier work
tubulin [4] = details: cited from earlier work
[5] = relative to tamoxifen; cited from earlier work
estrogen = details: cited from earlier work
[6] = P388, read-out: ED50 (effective dosage required to inhibit 50% of cell growth)

Structure (SMILES) | inhibition of tubulin polymerization (tubulin [2]) | activity against P388 leukemia cells (P388 leukemia cells; P388 leukemia cells) | IC50 (P388 leukemia cells; [6]) | further results
CC1CS(=O)(=O)CCN1/N=C/c1ccc([N+](=O)[O-])o1 (stereo not drawn) [nifurtimox] |  |  |  | genotoxicity in children [1]: may also cause genotoxicity in children; adverse effects [1]: thrombocytopenic purpura and polyneropathy
COc1ccc(-c2sc3cc(OC)ccc3c2C(=O)c2c(OC)cccc2OC)cc1 [2,6-dimethoxybenzoyl, 3-(2', 6'-dimethoxybenzoyl)-2-(4'-methoxyphenyl)-6-methoxybenzo[b]thiophene] | no observable tubulin polymerization inhibition activity; also recorded: failed to inhibit tubulin polymerization | failed to show measurable activity |  | IC50 (P388 leukemia cells; read-out: ED50 (effective dosage required to inhibit 50% of cell growth), P388 leukemia cells): > 100 µg/mL
COc1ccc(/C=C\c2cc(OC)c(OC)c(OC)c2)cc1N(Cc1ccccc1)Cc1ccccc1 [5-[(Z)-2-(3',4',5'-trimethoxyphenyl)ethenyl]-2-methoxy-N,N-bis-(phenylmethyl)aniline, reference compound] |  |  | 33.9 µg/mL (≈ 68.4 µM) | 
COc1ccc(/C=C\c2cc(OC)c(OC)c(OC)c2)cc1O [Combretastatin A-4] |  |  |  | binding affinity for tubulin, cis (Z) form compared to trans (E) counterpart (tubulin [3]): much higher binding affinity for tubulin
COc1cc2c(cc1O)CC[C@@H]1[C@@H]2CC[C@]2(C)[C@@H](O)CC[C@@H]12 [2-methoxyestradiol] |  |  |  | inhibition of tubulin polymerization (tubulin [4]): viable inhibitor of tubulin polymerization
COc1ccc(-c2sc3cc(OC)ccc3c2C(=O)c2cc(OC)c(O)c(OC)c2)cc1 [3,5-dimethoxy-4-hydroxybenzoyl] | no observable tubulin polymerization inhibition activity; also recorded: failed to inhibit tubulin polymerization | failed to show measurable activity | > 100 µg/mL | 
COc1ccc(C2=C(C(=O)c3ccc(OCCN4CCCC4)cc3)c3ccccc3CC2)cc1 [trioxifene mesylate] |  |  |  | anti-tumor effects compared with tamoxifen [5]: anti-tumor effects at the same or higher level as tamoxifen
O=C(Cn1ccnc1[N+](=O)[O-])NCc1ccccc1 [benznidazole] |  |  |  | genotoxicity in children [1]: may also cause genotoxicity in children; adverse effects [1]: thrombocytopenic purpura and polyneropathy
CC/C(=C(\c1ccccc1)c1ccc(OCCN(C)C)cc1)c1ccccc1 [tamoxifen] |  |  |  | intrinsic estrogen agonist properties (estrogen): retain some intrinsic estrogen agonist properties
COc1ccc(-c2sc3cc(OC)ccc3c2C(=O)c2cc(OC)cc(OC)c2)cc1 [3,5-dimethoxybenzoyl, 3-(3',5'-dimethoxybenzoyl)-2-(4'-methoxyphenyl)-6-methoxybenzo[b]thiophene] | no observable tubulin polymerization inhibition activity; also recorded: failed to inhibit tubulin polymerization | failed to show measurable activity | > 100 µg/mL | 
